Assay results reported in US20070020306A1, “Endovascular implant with an at least sectional active coating made of radjadone and/or a ratjadone derivative” (priority 2003, published 2007).

System: aortal, smooth vascular muscle cells
Assay: inhibition of the growth of aortal, smooth vascular muscle cells
Assay type: cell-based, human
Conditions: pharmacologically active even in the smallest concentrations of active substance
Experimental: This effect already occurs starting at 1 to 100 nM, preferably 5 to 50 nM, so that already extremely low local concentrations are sufficient for an effective inhibition of restenosis in the region of an implant. This virtually precludes broader side-effects.

## C/C=C/[C@@H]1O[C@H]([C@H](O)/C=C/C=C(\C)C[C@@H](C)/C=C(C)\C=C\[C@H]2CC=CC(=O)O2)C[C@@H](O)[C@@H]1C [Ratjadone]
  potency in first experiments: particularly potent
